This is an account of results in EP0424670B1, “ZNS-active hexapeptides with antiamnestic activity” (HOECHST AKTIENGESELLSCHAFT, priority 1989, dated 1995).

Where a SMILES comes first, the peptide text is derived from it.

A short description of series [1]: stability in water at 80°C for 8 days, checked by HPLC. The series is classed as physicochemical. Conditions: 200 mg in 20 ml water, 8 days at 80°C, freeze-dried, HPLC detection at 220 nm. The procedure: • a) 200 mg Ac-Met(O₂)-Glu-His-Phe-D-Lys-Phe-NH(CH₂)₈-NH₂ · 2 CH₃COOH wurden in 20 ml Wasser gelöst und 8 Tage auf 80°C erhitzt. Nach dem Abkühlen wurde gefriergetrocknet.

For series [2], the system named is Scopolamin-induzierte Amnesie. As to the kind of experiment: inhibitory (passive) avoidance test (step-through model), reversal of scopolamine-induced amnesia. Type of series: in vivo, Mäusen. Conditions: Mus musculus, po, mice, comparison compound, read-out: MED (minimal effektive Dosis). The text has this: (§1) Die erfindungsgemäße Verbindung ist aufgrund ihrer pharmakologischen Eigenschaften für die Behandlung cognitiver Dysfunktionen unterschiedlicher Genese, wie sie z.B. bei der Alzheimer'schen Krankheit oder der senilen Demenz auftreten, geeignet. Die Verbesserung cognitiver Funktionen durch die erfindungsgemäßen Verbindungen (nootrope Wirkung) wurde im Tierexperiment an Mäusen mittels des inhibitory (passive) avoidance-Tests (step-through-Modell) und an Ratten mittels des radial-maze-Tests (8-armiger radialer Irrgarten) geprüft. Es handelt sich hierbei um literaturbeschriebene Standardtests zur Prüfung von Lern-und Gedächtnisfunktionen im Tierexperiment. (Inhibitory avoidance J. Bures, O. Buresova und J. Huston in "Techniques and Basic Experiments for the Study of Brain and Behavior", Elsevier Scientific Publishers, Amsterdam 1983; Radial Maze: U. Stäubli, M. Baudry und G. Lynch, Behavioral and Neural Biology 40, 58-69 (1984).)
(§2) Entsprechend den genannten Literaturangaben wird eine Substanz dann als nootrop wirksam bezeichnet, wenn sie bei den Versuchstieren der durch Scopolamin, Elektroschock oder Inhibitoren der Proteinsynthese induzierte Erhöhung der Fehlerrate in diesen Tests entgegenwirkt oder sie gar aufzuheben vermag.
(§3) Die Versuche wurden nach den obenbeschriebenen Testverfahren durchgeführt. […]

The test system of series [3] is Scopolamin-induzierte Amnesie. The experiment in a line: radial-maze test (8-arm radial maze), reversal of scopolamine-induced amnesia. The series is classed as in vivo, Ratten. Conditions: Rattus norvegicus, po, rats, comparison compound, read-out: MED (minimal effektive Dosis).
Description: as §1, §2, §3

For `CS(=O)(=O)CC[C@H](N)C(=O)N[C@@H](CCC(=O)O)C(=O)N[C@@H](Cc1c[nH]cn1)C(=O)N[C@@H](Cc1ccccc1)C(=O)N[C@H](CCCCN)C(=O)N[C@@H](Cc1ccccc1)C(=O)NCCCCCCCCN` [H-Met(O₂)-Glu-His-Phe-D-Lys-Phe-NH-(CH₂)₈-NH₂] (HELM PEPTIDE1{[CS(=O)(=O)CC[C@H](N)C(=O)[*:2]].E.H.F.[dK].F.[NCCCCCCCCN[*:1]]}$$$$V2.0), the “Zersetzung (HPLC-Untersuchung)” value in series [1] is listed as “starke Zersetzung”. For the molecule `CC(=O)N[C@@H](CCS(C)(=O)=O)C(=O)N[C@@H](CCC(=O)O)C(=O)N[C@@H](Cc1c[nH]cn1)C(=O)N[C@@H](Cc1ccccc1)C(=O)N[C@H](CCCCN)C(=O)N[C@@H](Cc1ccccc1)C(=O)NCCCCCCCCN` [Ac-Met(O₂)-Glu-His-Phe-D-Lys-Phe-NH-(CH₂)₈-NH₂ · 2 CH₃COOH] (HELM PEPTIDE1{[ac].[CS(=O)(=O)CC[C@H](N[*:1])C(=O)[*:2]].E.H.F.[dK].F.[NCCCCCCCCN[*:1]]}$$$$V2.0), the “Zersetzung (HPLC-Untersuchung)” value in series [1] is reported as “keine Zersetzung”. For `NC(=O)CN1CCCC1=O` [Piracetam, 2-Oxo-1-pyrrolidinylessigsäureamid], the minimal effective dose in series [2] and in series [3] was 500 to 1000 mg/kg throughout.
